# Measurements as given in patent publication US20240261374A1, “PHARMACEUTICAL COMPOSITION AND KIT COMPRISING AN IMMUNOMODULATORY SUBSTANCE FOR TREATING DISEASES” (ellennbe GmbH, priority 2021, published 2024).
# Columns and labels:
# [1] = system: ankylosing spondylitis (Bechterew's disease); assay type: in vivo, human; details: for Outcome of earlier treatment with TNF-α inhibitors (patient history): human, in vivo
# rheumatoid arthritis = assay: Treatment of patients suffering from rheumatoid arthritis (CRP, tender/swollen joints, HAQ, patient's statement); assay type: in vivo, human
# polymyalgia rheumatica = assay: Treatment of patients suffering from polymyalgia rheumatica (CRP, tender/swollen joints, HAQ); assay type: in vivo, human; details: Patient 14; 70 mg gradually reduced to 8 mg, increased again to 10 mg
# Source text: The investigation and determination of the joint condition has been performed by a physician or rheumatologist. A tender joint (TJ) was pressure sensitive but not necessarily swollen. […] The amount of TJ and SJ was counted. A reduction in the amounts of TJ and/or SJ, respectively, was an indication for a reduction in inflammation, mitigation of the disease and an improvement of the patient's health condition.
# The CRP (C-reactive protein) is the most important blood laboratory value for detecting and monitoring inflammation in the body. It was determined by a certified laboratory. A low CRP indicates the absence of an inflammation, while a high CRP is indicative for an inflammation to be present.
# The functional disability index (HAQ) is the average of the highest numerical values reported for each of the eight different domains. High HAQ-scores correspond to a high degree of disability.
# The treatment according to the present invention was performed by topically applying a heat pad on the upper side of the forearm as described in the Materials and Methods' section ‘Application of a heat pad’. The heat pad was applied for about 1 min to 2 min. The skin turned red and became warm and an increase in the skin temperature was palpable. About 30 see to 1 min after removing the heat pad the injections were performed intradermally within the skin of the red and warmed skin area. […]
# skin = details: healthy subjects, cited from earlier work
compound,measurement,setting,value
"Simponi®: biologic, golimumab; TNF-α inhibitor",Effect of earlier treatment with biologics (patient history),"[1]; Patient 11, ended more than a year before, lost their effect within half a year",had little effect from the outset
same,Outcome of earlier treatment with TNF-α inhibitors (patient history),[1],accompanied by strong adverse side effects
"CN(Cc1cnc2nc(N)nc(N)c2n1)c1ccc(C(=O)N[C@@H](CCC(=O)O)C(=O)O)cc1 [MTX, methotrexate]",Adverse side effects / outcome of earlier treatment (patient history),"rheumatoid arthritis; human, in vivo",severe adverse effects (tendency to fibrosis in the lungs and sinusitis)
Enbrel®,Outcome of earlier treatment with TNF-α inhibitors (patient history),[1],accompanied by strong adverse side effects
tocilizumab: IL-6 inhibitor,Effectiveness of earlier or basic treatment (patient history),"rheumatoid arthritis; Patient 7, not the treatment of the invention",only partially efficient
C[C@]12C=CC(=O)C=C1CC[C@@H]1[C@@H]2[C@@H](O)C[C@@]2(C)[C@H]1CC[C@]2(O)C(=O)CO [prednisolone],Outcome of earlier treatment (patient history),polymyalgia rheumatica,without complete remission of symptoms
CC[C@@H]1CN(C(=O)NCC(F)(F)F)C[C@@H]1c1cnc2cnc3[nH]ccc3n12 [upadacitinib],Adverse side effects / outcome of earlier treatment (patient history),"rheumatoid arthritis; Patient 7, years 2008 to April 2021",severe adverse effects (tendency to fibrosis in the lungs and sinusitis)
Remicade®: TNF-α inhibitor,Outcome of earlier treatment with TNF-α inhibitors (patient history),[1],accompanied by strong adverse side effects
"COC(=O)c1cccnc1 [MN, methyl nicotinate]",Perfusion response of the skin,skin; 50 μl of 20 mmol/l MN topically,reproducible perfusion response
same,Time course of the perfusion increase,skin; topical application of MN,reaches a stable plateau phase after five minutes
